Measured values from patent publication US12030897B2, “Pyrrolo[2,1-f][1,2,4]triazine derivatives serving as selective HER2 inhibitors and application thereof” (MEDSHINE DISCOVERY INC., priority 2018, dated 2024).
Where “and” joins values, the source holds several entries; their conditions need not be identical. Equal entries are not always repeated.

Assays:
HER2 (ErbB2) = HER2 (ErbB2) (Homo sapiens (Human), UniProt P04626); assay: In vitro enzyme activity, HER2 (ErbB2), [γ-33P]ATP filter assay; format: biochemical
Procedure: The object of this test is to detect the in vitro inhibitory activity of the compound against HER1 (ErbB1), HER2 (ErbB2) and HER4 (ErbB4). The enzymes used in this test were human ErbB1, ErbB2 and ErbB4. Eurofins Pharma Discovery Service provided the activity detection method, and the results of the inhibitory activity of the tested compound against HER1, HER2 and HER4 were shown in Table 1.
Experimental Steps and Methods (96-Well Plate):
5-fold diluted tested compound buffer (5 μL), peptide substrate poly(Glu, Tyr) (4:1) (2.5 μL), ErbB (4-20 ng, 2.5 μL), MnCl2 (50 mM, 1.25 μL), dH2O (3.75 μL) and [γ-^33P]ATP (10 μL) were added, and incubated at 30° C. for 10 min. 3% phosphoric acid was added to terminate the reaction, and 10 μL of the specimen was transferred to Filtermate A. The filter was washed with 75 mM phosphoric acid for three times and methanol once, and transferred to a sealed plastic bag, and a scintillation fluid mixture (4 mL) was added, The intensity of the emitted photons was detected on the scintillation luminescence counter. The photon intensity of the enzyme sample was compared with the photon intensity of the internal control sample, and the level of photon intensity reflected the strength of the tyrosine kinase activity.

NCI-N87 cell = assay: Cell proliferation inhibitory activity, Cell-Titer-Glo, NCI-N87; format: cell-based, human; conditions: Homo sapiens, NCI-N87, 72 h; 3 days incubation
From the text: (§1) Experiment object: to detect the inhibitory activity of the tested compound on cell proliferation.
(§2) Experimental principle: the luciferase in the Cell-Titer-Glo reagent uses luciferin, oxygen and ATP as reaction substrates to produce oxyluciferin and release energy in the form of light. Since the luciferase reaction requires ATP, the total amount of light produced by the reaction is proportional to the total amount of ATP that reflects cell viability.
(§3) Experimental Materials: • cell lines: NCI-N87 cell line (ATCC-CRL-5822); BT-474 cell line (ATCC-HTB-20) • Cell culture medium: RPMI 1640 medium (Invitrogen #22400-105; 10% serum Invitrogen #10090148; L-glutamine 1×, Gibco #25030-081; double antibody Hyclone #SV30010) • CellTiter-Glo® luminescence cell viability detection kit (Promega #G7573) • 384-well cell culture plate (Greiner #781090) • Compound plate (LABCYTE #LP-0200) • CO2 incubator (Thermo #371) • Vi-cell cell counter (Beckman Coulter) • Pipette (Eppendorf) • Pipette (Greiner) • Pipetting gun (Eppendorf) • Multifunctional microplate reader (Envision Reader) • ECHO Liquid-handling workstation (Labcyte-ECHO555)
(§4) The cells were inoculated in a 384-well plate with a density of 1000 cells per well and 25 μL per well. The edge wells were not inoculated with cells, and was supplemented with 25 μL of phosphate buffer.
(§5) The compound was added to the plate with 9 μL per well.
(§6) (2) The compound was diluted with ECHO liquid-handling workstation, and each well of the cell plate was added with 125 nL of compound. Each well of the cell wells of columns 2 and 23 was added with 125 nL of DMSO, and each well of the Media wells of columns 1 and 24 was added with 125 nL of DMSO.
(§7) (3) Each well of the cell plate was supplemented with 25 μL of culture medium, and the final volume in each well of the cell plate was 50 μL. The concentration of the compound was 10 μM, which was subjected to 3 fold dilution to obtain 10 concentrations. Each concentration was duplicated in left and right wells, and the final DMSO concentration was 0.25%.
(§8) 2.3 After adding the compound, it was centrifuged at 1000 rpm for 1 min. The cell plate was placed in a 37° C., 5% CO2 incubator for 3 days.
(§9) The cell plate was taken from the incubator and equilibrated at room temperature for 30 min. 25 μL of Cell-Titer-Glo reagent was added to each well, shaken for 1 min to make it thoroughly mixed, and centrifuged at 1000 rpm for 1 min. After 10 min, the plate was read on PerkinElmer Envision, and the […] reading time was set to 0.2 seconds.

BT-474 cell = assay: Cell proliferation inhibitory activity, Cell-Titer-Glo, BT-474; format: cell-based; conditions: Homo sapiens, BT-474, 72 h; 3 days incubation
From the text: as §1, §2, §3, §4, §5, §6, §7, §8, §9

CYP2C9 = CYP2C9 (Homo sapiens (Human), UniProt P11712); assay: Inhibition of human liver microsomal cytochrome P450 isoenzyme CYP2C9; format: in vitro ADME; conditions: human liver microsomes
Procedure: (§10) The object of this study was to evaluate the effect of Example 4 on the activities of five isoenzymes (CYP1A2, CYP2C9, CYP2C19, CYP2D6 and CYP3A4) of human liver microsomal cytochrome P450 (CYP) using an in vitro test system. The specific probe substrates of CYP450 isozymes were incubated with human liver microsomes and different concentrations of Example 4, and reduced nicotinamide adenine dinucleotide phosphate (NADPH) was added to initiate the reaction. After the reaction was completed, the samples were treated, and liquid chromatography tandem mass spectrometry (LC/MS/MS) was used to detect the metabolites produced by specific substrates.

CYP2D6 = CYP2D6 (Homo sapiens (Human), UniProt P10635); assay: Inhibition of human liver microsomal cytochrome P450 isoenzyme CYP2D6; format: in vitro ADME; conditions: human liver microsomes
Procedure: as §10

[1] = tested on: human breast cancer BT-474 cell subcutaneous xenograft tumor; assay: In vivo efficacy, BT-474 subcutaneous xenograft tumor model; parameters: species or system BALB/c nude mice; conditions: BT-474 xenograft, 100 mg/kg
Procedure: Experiment object: to study the in vivo efficacy of the tested compound in human breast cancer BT-474 cell BALB/c nude mouse subcutaneous xenograft tumor model.
Experimental animals: female BALB/c nude mice, 6 to 8 weeks old, weight: 18 to 22 grams; Supplier Beijing Weitonglihua Laboratory Animal Technology Co., Ltd.
Human breast cancer BT474 cells were cultured in a monolayer in vitro. The culture conditions were: ATCC Hybri-Care Medium with 1.5 g/L sodium bicarbonate, 10% fetal bovine serum, 100 U/mL penicillin and 100 μg/mL streptomycin, and 37° C., 5% CO2 incubator. Conventional digestion treatment with pancreatin-EDTA for passage was carried out twice a week. When the cell saturation was 80% to 90%, and the number reached the requirement, the cells were collected, counted and inoculated.
0.2 mL (1×10^7 cells) of BT474 cells (with matrigel in a volume ratio of 1:1) were subcutaneously inoculated on the right back of each mouse. The grouping and administration were started when the average tumor volume reached about 168 mm^3. (Estrogen tablets were inoculated three days before cell inoculation).
7.3 the Preparation of the Tested Samples, Tumor Measurement, Experimental Index and Statistical Analysis were the Same as in Experimental Example 6.

Chain of CYP2D6 (P10635 whole entry): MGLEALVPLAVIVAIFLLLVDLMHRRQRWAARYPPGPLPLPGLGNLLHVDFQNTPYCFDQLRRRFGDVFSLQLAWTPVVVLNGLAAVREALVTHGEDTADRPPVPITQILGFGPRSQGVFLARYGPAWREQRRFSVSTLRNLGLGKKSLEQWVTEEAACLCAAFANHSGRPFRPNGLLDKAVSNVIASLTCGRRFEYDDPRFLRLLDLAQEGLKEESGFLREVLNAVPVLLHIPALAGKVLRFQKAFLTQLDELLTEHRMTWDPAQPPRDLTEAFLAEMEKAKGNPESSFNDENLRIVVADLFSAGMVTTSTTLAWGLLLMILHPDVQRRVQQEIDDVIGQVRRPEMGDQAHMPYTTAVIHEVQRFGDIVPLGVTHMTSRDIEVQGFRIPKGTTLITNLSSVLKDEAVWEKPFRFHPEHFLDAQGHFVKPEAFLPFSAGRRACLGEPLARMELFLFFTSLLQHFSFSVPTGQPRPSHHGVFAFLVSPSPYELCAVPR
Chain of HER2 (ErbB2) (P04626 23-1255): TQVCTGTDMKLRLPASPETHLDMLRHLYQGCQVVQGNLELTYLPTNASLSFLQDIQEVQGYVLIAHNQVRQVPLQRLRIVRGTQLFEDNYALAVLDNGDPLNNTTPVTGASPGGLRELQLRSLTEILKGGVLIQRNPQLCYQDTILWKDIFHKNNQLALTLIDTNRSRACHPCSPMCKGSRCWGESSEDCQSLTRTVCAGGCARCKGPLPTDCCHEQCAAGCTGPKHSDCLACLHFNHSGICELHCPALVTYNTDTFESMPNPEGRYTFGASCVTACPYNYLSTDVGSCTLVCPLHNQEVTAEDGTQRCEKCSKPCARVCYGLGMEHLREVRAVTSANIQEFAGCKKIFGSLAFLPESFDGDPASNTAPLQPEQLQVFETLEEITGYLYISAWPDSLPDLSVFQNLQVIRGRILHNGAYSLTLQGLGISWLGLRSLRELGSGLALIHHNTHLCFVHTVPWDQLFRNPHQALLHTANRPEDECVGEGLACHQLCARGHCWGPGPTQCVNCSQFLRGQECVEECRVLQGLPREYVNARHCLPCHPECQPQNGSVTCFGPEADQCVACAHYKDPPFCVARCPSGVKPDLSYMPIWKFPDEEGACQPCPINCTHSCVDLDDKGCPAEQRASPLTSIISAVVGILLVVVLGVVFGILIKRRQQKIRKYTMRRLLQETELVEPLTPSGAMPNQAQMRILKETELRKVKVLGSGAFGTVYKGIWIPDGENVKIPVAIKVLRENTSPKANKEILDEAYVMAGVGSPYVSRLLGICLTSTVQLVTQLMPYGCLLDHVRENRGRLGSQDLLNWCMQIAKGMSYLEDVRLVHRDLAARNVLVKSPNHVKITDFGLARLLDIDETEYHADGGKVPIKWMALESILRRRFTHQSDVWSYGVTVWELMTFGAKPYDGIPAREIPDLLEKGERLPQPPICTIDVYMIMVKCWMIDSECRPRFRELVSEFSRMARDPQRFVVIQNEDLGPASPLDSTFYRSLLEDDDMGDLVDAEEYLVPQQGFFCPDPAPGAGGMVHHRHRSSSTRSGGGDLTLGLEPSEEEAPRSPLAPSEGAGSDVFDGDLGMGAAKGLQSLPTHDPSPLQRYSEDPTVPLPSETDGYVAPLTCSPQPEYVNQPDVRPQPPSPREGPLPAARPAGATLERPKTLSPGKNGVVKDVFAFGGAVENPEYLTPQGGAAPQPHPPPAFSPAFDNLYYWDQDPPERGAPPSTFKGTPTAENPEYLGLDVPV
Chain of CYP2C9 (P11712 whole entry): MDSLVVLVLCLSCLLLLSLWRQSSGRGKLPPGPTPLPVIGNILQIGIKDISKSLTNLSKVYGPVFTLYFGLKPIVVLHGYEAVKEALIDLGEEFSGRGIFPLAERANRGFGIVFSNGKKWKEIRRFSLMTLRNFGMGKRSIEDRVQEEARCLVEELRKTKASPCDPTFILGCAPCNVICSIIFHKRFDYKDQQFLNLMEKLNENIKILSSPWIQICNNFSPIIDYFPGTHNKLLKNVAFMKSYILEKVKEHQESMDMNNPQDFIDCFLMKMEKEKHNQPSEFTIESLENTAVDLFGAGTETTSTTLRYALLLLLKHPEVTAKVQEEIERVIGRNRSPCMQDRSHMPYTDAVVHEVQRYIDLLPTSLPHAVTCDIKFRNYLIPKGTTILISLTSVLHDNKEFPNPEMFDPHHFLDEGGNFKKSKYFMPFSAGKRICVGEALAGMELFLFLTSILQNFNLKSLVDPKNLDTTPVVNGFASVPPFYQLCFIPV

## Cc1cc(Nc2ncnn3ccc(CN4CCC(N)CC4)c23)ccc1Oc1ccn2ncnc2c1 [Example 4]
HER2 (ErbB2)
  IC50: 12 nM
NCI-N87 cell
  IC50: 7 nM
BT-474 cell
  IC50: 23 nM
CYP2C9
  IC50: > 50000 nM
CYP2D6
  IC50: 25400 nM
[1]; day 20
  RTV: 0.20 ± 0.02
  T/C: 2.62%
  TGI: 112.93%
[1]; day 20 (head: Day 21), mean ± SEM
  Tumor volume: 33 mm^3 and 33 ± 3 mm^3
